The record followed here is patent US5135938A, “Leukotriene antagonists” (SmithKline Beecham Corporation, priority 1990, dated 1992).

Structures can show the parent of a compound that is named as a salt.

The target of the assay is T1, LTD4 induced contraction of guinea pig tracheal spiral strips (Cavia porcellus, UniProt Q2NNR5).
T1 construct: Guinea pig (adult male albino Hartley strain) tracheal spiral strips; from tissue; host or cells: guinea pig trachea (adult male albino Hartley strain), spiral strips
T1 sequence (Q2NNR5 1-340): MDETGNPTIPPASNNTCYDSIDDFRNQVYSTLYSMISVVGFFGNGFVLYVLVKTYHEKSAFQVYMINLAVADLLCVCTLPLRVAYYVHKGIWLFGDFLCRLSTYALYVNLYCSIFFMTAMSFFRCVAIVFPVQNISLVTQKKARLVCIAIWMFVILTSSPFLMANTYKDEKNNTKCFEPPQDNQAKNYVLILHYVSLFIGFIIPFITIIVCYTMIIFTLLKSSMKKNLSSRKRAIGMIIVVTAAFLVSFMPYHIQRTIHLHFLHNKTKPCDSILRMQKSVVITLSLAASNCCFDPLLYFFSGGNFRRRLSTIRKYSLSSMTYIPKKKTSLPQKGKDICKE
The assay can be described thus: Inhibition of leukotriene (LTD4) induced contraction of guinea pig tracheal tissues in vitro. Format: cell-based. Particulars: LTD4 concentration-response on guinea pig tracheal strips, 30 minutes pretreatment with test compound; KB from EC30 shift; current average where tested more than once; read-out: In Vitro Log K8 (-log KB, leukotriene antagonist activity) (converted). The method, then: The leukotriene antagonist activity of the compounds of this invention is measured by the ability of the compounds to inhibit the leukotriene induced contraction of guinea pig tracheal tissues in vitro. The following methodology was employed:
In vitro: Guinea pig (adult male albino Hartley strain) tracheal spiral strips of approximate dimensions 2 to 3 mm cross-sectional width an 3.5 cm length were bathed in modified Krebs buffer in jacketed 10 ml tissue bath and continuously aerated with 95% O2 /5% CO2. The tissues were connected via silk suture to force displacement transducers for recording isometric tension. The tissues were equilibrated for 1 hr., pretreated for 15 minutes with meclofenamic acid […] to remove intrinsic prostaglandin responses, and then pretreated for an additional 30 minutes with either the test compound or vehicle control. A cumulative concentration-response curve for LTD4 on triplicate tissues was generated by successive increases in the bath concentration of the LTD4. In order to minimize intertissue variability, the percentage of the maximum response obtained to a reference agonist, carbachol […].
Calculations: The averages of the triplicate LTD4 concentration-response curves both in the presence and absence of the test compound were plotted on log graph paper. The concentration of LTD4 needed to elicit 30% of the contraction elicited by carbachol was measured and defined as the EC30. The -log KB value for the test compound was determined by the following equations: [formula] 2. KB =concentration of test compound/(X-1)
The antagonist activity of representative compounds of this invention is tabulated below in Table I (other data appears in the preparative examples). The -log KB values were calculated from the above test protocol. Where compounds were tested more than once, the -log KB values given herein represent the current average data.
On to `CCCCCCCCCCCCc1ccccc1C(Sc1nnnn1CCCC(=O)O)C(=O)O` (stereo not drawn) [Example 3, 2-(2-Dodecylphenyl)-2-[[1-(3-carboxypropyl)-5-tetrazolyl]thio]acetic acid], for which the Kb (in general, the affinity of an antagonist, worked out from how it opposes an agonist) is 39.8 nM.
With `CCCCCCCCCCCCc1ccccc1C(Sc1nc(C)c(C(=O)O)s1)C(=O)O` (stereo not drawn) [Example 15, 2-(2-Dodecylphenyl)-2-(5-carboxy-4-methyl-2-thiazolylthio)acetic acid], the Kb is 200 nM.
In the case of `CCCCCCCCCCCCc1ccccc1C(CC(=O)O)Sc1nnnn1CCCC(=O)O` (stereo not drawn) [Example 6, 3-(2-dodecylphenyl)-3-[[1-(3-carboxypropyl)-5-tetrazolyl]thio]propanoicacid], the Kb was 251 nM.
For `O=C(O)CCCn1nnnc1SC(c1ccccc1CCCCCCCCc1ccccc1)C(O)C(=O)O` (stereo not drawn) [Example 13, 3-[2-(8-phenyloctyl)phenyl]-3-[[1-(3-carboxypropyl)-5-tetrazolyl]thio]-2-hydroxypropanoic acid], the Kb was 100 nM.
For `O=C(O)CC(Sc1nnnn1CC(=O)O)c1ccccc1CCCCCCCCc1ccccc1` (stereo not drawn) [Example 7, 3-[2-(8-Phenyloctyl)phenyl]-3-[(1-carboxymethyl-5-tetrazolyl)thio]propanoic acid], the Kb is 501 nM.
Regarding `CCCCCCCCCCCCc1ccccc1C(SCCc1nnn[nH]1)C(=O)O` (stereo not drawn) [Example 12, 2-(2-dodecylphenyl)-2-[2-(tetrazol-5-yl)ethylthio]acetic acid], the Kb is 316 nM.
On to `O=C(O)Cn1nnnc1SC(c1ccccc1CCCCCCCCc1ccccc1)C(O)C(=O)O` (stereo not drawn) [Example 14, 3-[2-(8-phenyloctyl)phenyl]-3-[(1-carboxymethyl-5-tetrazolyl)thio]-2-hydroxypropanoic acid], for which the Kb was 100 nM.
`O=C(O)CCCn1nnnc1SC(CC(=O)O)c1ccccc1CCCCCCCCc1ccccc1` (stereo not drawn) [Example 8, 3-[2-(8-Phenyloctyl)phenyl]-3-[[1-(3-carboxypropyl)-5-tetrazolyl]thio]propanoic acid]: the antagonist dissociation constant (Kb) was 1000 nM.
With `CCCCCCCCCCCCc1ccccc1C(Sc1nnnn1CS(=O)(=O)O)C(=O)O` (stereo not drawn) [Example 4, 2-(2-Dodecylphenyl)-2-[(1-sulfomethyl-5-tetrazolyl)thio]acetic acid ammonium salt hydrate], the Kb is 398 nM.
